Experimental data as given in patent US12402621B2, “Method for increasing longevity and/or bud opening of cut flowers” (LETAVIS AB, priority 2019, dated 2025).

Legend:
Format in all cases: in vivo
[1] = test system: roses of the type Belle Rose; assay: Effect of oxytocin on the survival of cut roses of the type Belle Rose (appearance scores after pretreatment in cold-storage room); conditions: oxytocin 1, 5 and 10 μM in the presence of Chrysal, in particular 10 μM; cold-storage room 3 days, then tap water at room temperature; FIGS. 5 and 6
Method: The stalks of newly delivered roses of the type Belle Rose were cut (1 cm from the lowest part of the stem) and thereafter the roses were placed in buckets containing tap water or tap water with different doses of oxytocin (0, 1, 5 and 10 μM in the presence of Chrysal) and kept in a cold-storage room for 3 days. Eight to nine roses were included in each bucket.
Thereafter, the roses were moved to a home like setting with normal room temperature. The stalks of the roses were again cut and the rose bouquets were placed in vases filled with tap water.
(§1) The appearance of the roses was assessed at 0, 2, 4, 7 10 and 13 days after being placed in the home like setting according to the criteria shown in Table 2 (see Example 1). The assessment criteria were: degree of bud opening (i.e. degree of flower turn-out), degree of drooping (i.e. how bent the stalk was, freshness of the petals, freshness of the sepals and freshness of the stem leaves. Each assessment criterion was given a score from 1-5 according to the description. An average score based on all the assessment criteria was also calculated.

[2] = test system: roses of the type Furiosa; assay: Effect of oxytocin on the florescence of cut roses of the type Furiosa (appearance scores after pretreatment in cold-storage room)
Method: (§2) The stalks of newly delivered roses of the type Furiosa were cut (1 cm from the lowest part of the stem) and thereafter the roses were placed in buckets containing water with different doses of oxytocin (0, 0.1, 1 and 10 μM) and kept in a cold-storage room for 0.25, 1.3 and 19 days. Nine roses were included in each treatment group.
Thereafter, the roses were moved to a home like setting with normal room temperature. The stalks of the roses were again cut and the roses were placed in individual vases filled with tap water.
as §1, with “The” for “The appearance of the roses was assessed at 0, 2, 4, 7 10 and 13 days after being placed in the home like setting according to the criteria shown in Table 2 (see Example 1). The”

[3] = test system: roses of the type Upper class; assay: Effect of oxytocin on the survival of cut roses of the type Upper class (appearance scores after pretreatment in cold-storage room); conditions: oxytocin 1-10 μmolar in water, cold-storage room 18 days, then tap water at room temperature; assessed at 4, 9, 15 and 20 days; FIG. 2
Excerpt: as §2, with “Upper class” for “Furiosa”, “(For doses see Table” for “(0, 0.1,”, “1” for “1 and 10 μM)”, “18” for “0.25, 1.3 and 19”, “Four” for “Nine”
Thereafter, the roses were moved to a home-like setting with normal room temperature. The stalk of the roses was cut again and the roses were placed in individual vases filled with tap water.
The assessment criteria were: degree of bud opening (i.e. degree of flower turn-out), degree of drooping (i.e. how bent the stalk was, freshness of the petals, freshness of the sepals and freshness of stem leaves. Each assessment criterion was given a score from 1-5 according to the description. An average score based on all the assessment criteria was also calculated.

## oxytocin
[1]
  duration of time during which the roses kept fresh and attractive: increased in response to oxytocin
  level of florescence: increased the level of florescence
[2]; in particular with 10 μM oxytocin, after being put in tap water in home-like setting, FIG. 4
  duration of time during which the roses kept fresh and attractive (days with bud opening score above 1.5): increased in response to oxytocin
[2]; oxytocin 0.1, 1 and 10 μM, in particular 10 μM, pretreatment in cold-storage room, then tap water at room temperature, FIG. 3
  degree of bud opening: increased the degree of bud opening
[2]; treatment with oxytocin for 3 days versus 6 hours in cold-storage room, FIG. 3
  effect on degree of bud opening by length of oxytocin treatment: more pronounced after treatment with oxytocin for 3 days than for 6 hours
[3]
  individual assessments (bud opening, drooping, freshness of petals, sepals, stem leaves): in a positive direction
